The target in this experiment is T1, BwCuyA (Bilophila wadsworthia, UniProt E5Y343).
T1 sequence (E5Y343 1-333): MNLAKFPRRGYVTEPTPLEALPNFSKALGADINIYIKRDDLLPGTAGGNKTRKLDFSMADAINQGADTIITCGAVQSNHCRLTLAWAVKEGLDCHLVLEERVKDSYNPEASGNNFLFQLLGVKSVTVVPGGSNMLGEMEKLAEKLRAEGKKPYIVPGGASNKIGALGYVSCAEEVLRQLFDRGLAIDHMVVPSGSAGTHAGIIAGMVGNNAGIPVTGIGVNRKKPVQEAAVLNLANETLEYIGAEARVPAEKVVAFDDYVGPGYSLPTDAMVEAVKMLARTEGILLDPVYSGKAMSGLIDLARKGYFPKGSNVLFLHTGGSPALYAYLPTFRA
Briefly: UV-Vis absorbance spectrum of purified enzyme. The class given is binding. The settings on record: enzyme as isolated; sub-stoichiometric PLP content.

On to `Cc1ncc(COP(=O)(O)O)c(C=O)c1O` [PLP], for which the “UV-Vis absorbance spectrum of purified enzyme” value is reported as “UV-Vis absorbance spectrum of BwCuyA exhibited characteristic features of the PLP cofactor”.

These data come from publication PMC11193023 (The Journal of Biological Chemistry, 2024).
